Data taken from PubChem BioAssay (NCI).
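Briefly, cells in 96-well plates were exposed to five compound concentrations for 48 h, and endpoints were estimated by linear interpolation. TGI: concentration producing complete growth inhibition.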

How the values were obtained:
Assay in all cases: growth of human tumour cells (NCI), 48 h
A549 NSCLC = system: A549 NSCLC
MCF7 breast = system: MCF7 breast
SK-MEL-5 melanoma = system: SK-MEL-5 melanoma
LOX IMVI melanoma = system: LOX IMVI melanoma
UO-31 renal = system: UO-31 renal
786-0 renal = system: 786-0 renal
IGROV1 ovarian = system: IGROV1 ovarian
KM12 colon = system: KM12 colon
OVCAR-4 ovarian = system: OVCAR-4 ovarian
OVCAR-8 ovarian = system: OVCAR-8 ovarian
T-47D breast = system: T-47D breast
HCC-2998 colon = system: HCC-2998 colon
TK-10 renal = system: TK-10 renal
HT29 colon = system: HT29 colon
SNB-75 CNS = system: SNB-75 CNS
NCI-H522 lung = system: NCI-H522 lung
RPMI-8226 leukemia = system: RPMI-8226 leukemia
HOP-92 NSCLC = system: HOP-92 NSCLC

Row | Compound | TGI (A549 NSCLC) [µM] | TGI (MCF7 breast) [µM] | TGI (SK-MEL-5 melanoma) [µM] | TGI (LOX IMVI melanoma) [µM] | TGI (UO-31 renal) [µM] | TGI (786-0 renal) [µM] | TGI (IGROV1 ovarian) [µM] | TGI (KM12 colon) [µM] | TGI (OVCAR-4 ovarian) [µM] | TGI (OVCAR-8 ovarian) [µM] | TGI (T-47D breast) [µM] | TGI (HCC-2998 colon) [µM] | TGI (TK-10 renal) [µM] | TGI (HT29 colon) [µM] | TGI (SNB-75 CNS) [µM] | TGI (NCI-H522 lung) [µM] | TGI (RPMI-8226 leukemia) [µM] | TGI (HOP-92 NSCLC) [µM]
1 | O=C(NC(=O)c1ccccc1)OC(c1ccccc1)C1CO1 (configuration not stated) | > 100 | > 100 | > 100 | > 100 | > 100 | > 100 | > 100 | > 100 | > 100 | > 100 | > 100 | > 100 | > 100 | > 100 | > 100 | > 100 | > 100 | –
2 | C=C[C@]1(C)CC(=O)C(C(C)C=O)[C@]12C(=O)Oc1cccc(C)c1C2=O (some centres not stated) | 44.4 | 32.7 | 25.9 | 27.5 | 28.9 | 30 | – | 28.8 | 35.5 | 31.5 | 34.1 | 31.7 | 28.2 | 27.6 | 30.8 | 18.2 | > 100 | –
3 | COC(=O)C1CC(c2ccc(Cl)cc2)=NO1 (configuration not stated) | > 100 | – | > 100 | – | > 100 | > 100 | > 100 | > 100 | > 100 | > 100 | – | > 100 | > 100 | > 100 | > 100 | > 100 | > 100 | > 100
4 | O=C(O)CCNc1ncc2c(n1)-c1ccccc1OC2 | > 100 | > 100 | > 100 | > 100 | > 100 | > 100 | > 100 | > 100 | > 100 | > 100 | – | – | > 100 | > 100 | > 100 | > 100 | > 100 | > 100
5 | CCOc1ccc(N2C(=O)NC3(c4ccccc4)N(C)C(=O)N(C)C23c2ccccc2)cc1 (configuration not stated) | > 100 | > 100 | > 100 | > 100 | > 100 | > 100 | > 100 | > 100 | – | > 100 | – | – | – | > 100 | 63.5 | > 100 | > 100 | > 100
6 | O=C1C[C@@H]2[C@@H](CCC23CCCC3)N1 | > 100 | – | > 100 | > 100 | > 100 | > 100 | > 100 | > 100 | > 100 | > 100 | – | > 100 | > 100 | > 100 | > 100 | > 100 | > 100 | –
7 | Cc1ccc(C(=O)C(c2nc3n(c2O)C(=N)N=N3)c2nc3n(c2O)C(=N)N=N3)cc1 (configuration not stated) | > 100 | – | > 100 | > 100 | > 100 | > 100 | > 100 | > 100 | > 100 | > 100 | – | > 100 | > 100 | > 100 | > 100 | > 100 | > 100 | > 100
8 | CC1OC(OC2C(OC(=O)[C@]34CCC(C)(C)CC3C3=CCC5[C@@]6(C)C[C@H](O)[C@H](OC7OC(COC8OC(CO)C(O)C(O)C8O)C(O)C(O)C7O)[C@@](C)(C(=O)O)C6CC[C@@]5(C)C3(C)CC4)OCC(O)C2O)C(O)C(O)C1OC1OCC(O)C(O)C1O (some centres not stated) | > 100 | – | > 100 | > 100 | > 100 | > 100 | > 100 | > 100 | – | > 100 | – | > 100 | > 100 | > 100 | > 100 | > 100 | > 100 | > 100
9 | Fc1ccc(Oc2nc3ccccc3nc2-c2ccccc2)cc1 | – | > 100 | > 100 | > 100 | > 100 | > 100 | > 100 | > 100 | > 100 | – | – | > 100 | > 100 | > 100 | – | > 100 | > 100 | > 100
10 | Cc1ccc(NC(=O)CCc2nnc3s/c(=C\c4cccc([N+](=O)[O-])c4)c(=O)n23)cc1 | > 100 | – | > 100 | > 100 | > 100 | > 100 | > 100 | > 100 | > 100 | > 100 | – | > 100 | > 100 | > 100 | > 100 | > 100 | > 100 | > 100
11 | OCC1C2CCC3(OCCO3)C12 (configuration not stated) | > 100 | > 100 | > 100 | > 100 | 29.6 | > 100 | > 100 | > 100 | > 100 | > 100 | – | > 100 | > 100 | > 100 | > 100 | > 100 | > 100 | > 100
12 | CC(NC(=O)C(N)CC(=O)O)C(=O)OC12CC3CC(CC(C3)C1)C2 (configuration not stated) | > 100 | > 100 | > 100 | > 100 | > 100 | > 100 | > 100 | > 100 | > 100 | > 100 | – | > 100 | > 100 | > 100 | > 100 | > 100 | > 100 | > 100
13 | CC1=NNC(=O)C1C1CC(c2c[nH]c3ccccc23)=NN(c2ccccc2)C1=O (configuration not stated) | > 100 | – | > 100 | > 100 | > 100 | 57.7 | > 100 | > 100 | – | > 100 | > 100 | – | > 100 | > 100 | > 100 | 77.9 | > 100 | > 100
14 | CO[C@H](C(=O)O[C@H]1C(=O)N2CC[C@@H]3CCC[C@H]1C32C)c1ccccc1 (some centres not stated) | > 100 | – | > 100 | > 100 | > 100 | > 100 | > 100 | > 100 | > 100 | > 100 | – | > 100 | – | > 100 | – | > 100 | > 100 | –
15 | CCC(=O)N(c1ccccc1)C(C)CN1CCC(O)(c2cccc(C(F)(F)F)c2)CC1 (configuration not stated) | > 100 | – | 34.9 | 35 | 72.6 | 40.1 | > 100 | > 100 | > 100 | > 100 | 98.4 | 57.3 | 73.3 | 27.2 | 76.3 | 39 | 45.3 | 61.6
16 | COc1cccc(N2C(=O)/C(=C/c3ccc(N(CCC#N)CCC#N)cc3)N=C2c2cc([N+](=O)[O-])ccc2Cl)c1 | – | – | > 100 | – | > 100 | > 100 | > 100 | > 100 | > 100 | > 100 | – | > 100 | – | > 100 | > 100 | > 100 | > 100 | –
17 | CSCCC(NC(=O)Cc1ccc(C(=O)c2ccccc2)cc1)C(=O)N1CCN(CCCCN2c3ccccc3Sc3cc(N=[N+]=[N-])ccc32)CC1 (configuration not stated) | – | > 100 | > 100 | > 100 | > 100 | > 100 | > 100 | > 100 | > 100 | – | – | > 100 | > 100 | > 100 | – | > 100 | > 100 | > 100
18 | O=C(NC1CCN(Cc2ccccc2)CC1)c1cccc(I)c1 | > 100 | – | 31.2 | 37.8 | 31.6 | 57.8 | > 100 | 33.6 | > 100 | > 100 | 61 | – | 65.2 | 43.7 | – | 32.9 | 69.2 | 62.7
19 | Cc1ccc(C(=O)O)c(/C=C2\Cc3cc(C)cc(C)c3C2=O)c1 | > 100 | > 100 | > 100 | > 100 | > 100 | > 100 | > 100 | > 100 | – | > 100 | > 100 | > 100 | > 100 | > 100 | > 100 | > 100 | > 100 | –
20 | CN1C(=S)CSc2ccccc21 | > 100 | – | > 100 | > 100 | > 100 | > 100 | > 100 | > 100 | > 100 | > 100 | – | – | > 100 | > 100 | > 100 | > 100 | > 100 | > 100
21 | O=S1(=O)OCCOS(=O)(=O)C1(Cl)Cl | > 100 | – | > 100 | > 100 | > 100 | > 100 | > 100 | > 100 | > 100 | > 100 | – | > 100 | > 100 | > 100 | > 100 | > 100 | > 100 | > 100
22 | C/C(=N\Nc1nc2ccccc2o1)c1ncccn1 | 12.1 | – | 13.9 | 0.199 | 0.609 | 12.1 | 1.16 | 30.2 | 10.2 | 0.404 | 28.5 | 20.7 | 18.2 | 45.4 | – | 22.3 | 0.0363 | 16.6
23 | O=C1N=CN=C2C=CC(Cl)=C(I)C12 (configuration not stated) | > 100 | – | > 100 | > 100 | 65.7 | > 100 | > 100 | > 100 | > 100 | > 100 | – | > 100 | > 100 | > 100 | – | – | > 100 | –
24 | CC(C)COC(=O)c1ccc(N=Cc2ccc(C=Nc3ccc(C(=O)OCC(C)C)cc3)cc2)cc1 | > 100 | – | – | > 100 | > 100 | > 100 | > 100 | > 100 | > 100 | > 100 | – | > 100 | > 100 | > 100 | > 100 | > 100 | > 100 | > 100
25 | CCOC(=O)c1cc(-c2ccc([N+](=O)[O-])cc2)c([N+](=O)[O-])[nH]1 | > 10 | – | – | – | 9.69 | > 10 | > 10 | > 10 | > 10 | > 10 | 9.95 | > 10 | > 10 | > 10 | > 10 | > 10 | – | 5.49
26 | O=C(CC(=O)N1N=C(n2ccc3ccccc32)CC1c1ccccc1)Nc1ccc(Cl)cc1 (configuration not stated) | > 100 | – | – | > 100 | > 100 | > 100 | > 100 | > 100 | > 100 | > 100 | – | > 100 | > 100 | > 100 | > 100 | > 100 | > 100 | > 100
27 | CC(=O)NNc1nc(C)c(C(/C=C/c2ccc(Cl)cc2)=N\N=C(N)N)s1 | > 100 | – | > 100 | > 100 | > 100 | > 100 | > 100 | > 100 | > 100 | > 100 | – | > 100 | > 100 | > 100 | > 100 | > 100 | > 100 | > 100
28 | O=C1CNc2cc(N3CCOCC3)ccc2N1 | > 100 | – | > 100 | > 100 | > 100 | > 100 | > 100 | > 100 | > 100 | > 100 | > 100 | > 100 | > 100 | > 100 | > 100 | > 100 | > 100 | > 100
29 | NC1=NCC(CN2CCCCC2)O1 (configuration not stated) | > 100 | > 100 | > 100 | > 100 | > 100 | > 100 | > 100 | > 100 | – | > 100 | > 100 | – | > 100 | > 100 | > 100 | > 100 | > 100 | –
